According to publication PMC11769294, “(E)-1-(3-(3-Hydroxy-4-Methoxyphenyl)-1-(3,4,5-Trimethoxyphenyl)allyl)-1H-1,2,4-Triazole and Related Compounds: Their Synthesis and Biological Evaluation as Novel Antimitotic Agents Targeting Breast Cancer” (Pharmaceuticals, 2025):

Assays:
[1] = Cytotoxicity in MCF-10A cells (alamarBlue); format: cell-based, human; conditions: human, MCF-10A non-tumorigenic mammary epithelial cells
Description: Figure 9 Effect of compounds 22a (A) and 22b (B) on the cell viability of non-tumorigenic MCF-10A human mammary epithelial cells at 24, 48, and 72 h. Cells were treated with the compounds 22a and 22b at concentrations of 10 μM, 1 μM, 0.5 μM, and 0.4 μM for 24, 48, or 72 h. […] Cell viability was expressed as a percentage of vehicle control (ethanol 1% (v/v)) and was determined by an alamarBlue assay (average ± SEM of three independent experiments). Two-way ANOVA (Bonferroni post-test) was used to test for statistical significance (*, p < 0.05; **, p < 0.01; ***, p < 0.001).
HL-60 cells were suspension cells and the seeding density for the viability assay was 25,000 cells/mL. MCF-7 cells (adherent) were cultured in Minimum Essential Media (MEM) with GlutaMAX™-I, supplemented with 1% (v/v) non-essential amino acids, 10% (v/v) fetal bovine serum (FBS), purchased from BD Biosciences (Edmund Halley Road, Oxford, UK), and 1% (v/v) penicillin/streptomycin 5000 U/mL. The MCF-7 cells used in the screening of the compounds during these experiments were mycoplasma-free. The seeding density of MCF-7 in the viability assay was 25,000 cells/mL and 50,000 cells/mL in the FACS assay. Normal breast cells (MCF-10A) (adherent) were cultured in Dulbecco’s Modified Eagle Medium: Nutrient Mixture F-12 (DMEM/F12; Gibco) supplemented with 5% horse serum (Invitrogen, Waltham, MA, USA), 20 ng/mL epidermal growth factor (Merck Millipore, Burlington, MA, USA), 0.5 μg/mL hydrocortisone (Sigma, Kanagawa, Japan), 100 ng/mL cholera toxin (Sigma), 10 μg/mL insulin (Sigma), and penicillin/streptomycin 5000 U/mL (1%) (Gibco, Waltham, MA, USA). […] MDA-MB-231 cells were cultured in Dulbecco’s Modified Eagle Medium, which was supplemented with 10% (v/v) fetal bovine serum (FBS) and 1% (v/v) penicillin/streptomycin 5000 U/mL. When not in use, all cells were kept in liquid nitrogen and frozen in a freezing media made of 90% FBS and 10% DMSO. All cells were grown in an atmosphere of 5% CO2/95% air in T75 culture flasks. The media was changed every 2–3 days and media was always prewarmed to 37 °C. All were sub-cultured every 3–4 days by trypsinization using TrypLE™ Express enzyme when confluence was reached to allow growth, prevent excessive cell death, and minimize the risk of infections derived by over-confluence. For the cell viability assay, the number of cells per milliliter was 25,000 cells/mL while the FACS assay utilized 50,000 cells/mL. Cells were maintained at 37 °C in 5% CO2 in a humidified incubator.
The biochemical assays were performed in triplicate and on at least three independent occasions to facilitate the determination of mean values. For the viability assay, cells were grown until 80% confluent. Adherent cells such as MCF-7, MDA-MB-231, and MCF-10A were trypsinized to detach them from the flask, counted as previously described, and seeded in 96 well plates with a seeding density of 25,000 cells /mL (200 µL of suspension in each well so that the final number of cells per well was 5000) and 1 × 10^4 cells/well seeding density for suspension HL-60 cells. Adherent cells were incubated for 24 h after being seeded in the 96 well plate and treated on the following day, while suspension cells were treated on the same day of the seeding. In both cases, the incubation time after the treatment with the drug was 72 h. After 68 h incubation, the AlamarBlue was added (20 µL in each well) and the incubation time was completed. After 72 h, the change in color was measured by spectrofluorimetry at an excitation wavelength of 544 nm and emission wavelength of 590 nm. AlamarBlue is a cell viability indicator containing a compound called resazurin. AlamarBlue is water soluble, stable in culture media, non-toxic, and is permeable through the cell membrane. When resazurin (blue) enters the live cells, it is reduced to the fluorescent molecule resorufin (pink).

[2] = test system: A549/ATCC (Non-Small Cell Lung Cancer); test: NCI60 screen (SRB); format: cell-based, human; conditions: 48 h; for growth percent: one dose 10 µM
HT29 (Colon Cancer) = test: NCI60 screen (SRB); format: cell-based, human; conditions: 48 h; for growth percent: one dose 10 µM
A498 (Renal Cancer) = test: NCI60 screen (SRB); format: cell-based, human; conditions: 48 h; for growth percent: one dose 10 µM
ACHN (Renal Cancer) = test: NCI60 screen (SRB); format: cell-based, human; conditions: 48 h; for growth percent: one dose 10 µM
HL-60 cells = test: alamarBlue cell viability assay; format: cell-based; conditions: Homo sapiens
Description: Figure 7 Preliminary cell viability data for (A) triazoles 22b–d, 22f, 22g and imidazole 23d and (B) triazoles 26a–e and imidazoles 27a, 27b, 27e, 27f, 27h and 27i in HL-60 cells. Cell proliferation of HL-60 cells was determined with an alamarBlue assay (seeding density 2.5 × 10^4 cells/mL per well for 96-well plates). Compound concentrations of either 1 or 0.1 μM for 72 h were used to treat the cells (in triplicate) with control wells containing vehicle ethanol (1% v/v). The mean value ± SEM for three independent experiments is shown. The positive control was CA-4 (1.0 μM and 0.1 μM).
HL-60 cells were suspension cells and the seeding density for the viability assay was 25,000 cells/mL. […]
The biochemical assays were performed in triplicate and on at least three independent occasions to facilitate the determination of mean values. […] Adherent cells such as MCF-7, MDA-MB-231, and MCF-10A were trypsinized to detach them from the flask, counted as previously described, and seeded in 96 well plates with a seeding density of 25,000 cells /mL (200 µL of suspension in each well so that the final number of cells per well was 5000) and 1 × 10^4 cells/well seeding density for suspension HL-60 cells. […] After 72 h, the change in color was measured by spectrofluorimetry at an excitation wavelength of 544 nm and emission wavelength of 590 nm. […]

CYP19 (aromatase) = CYP19 (aromatase) (Homo sapiens, UniProt P11511); test: Cytochrome P450 assay (DBF fluorescence); conditions: read-out: inhibition of CYP19
[3] = 1 μM, 24 h, read-out: cell viability

Sequence of CYP19 (aromatase) (P11511 whole entry): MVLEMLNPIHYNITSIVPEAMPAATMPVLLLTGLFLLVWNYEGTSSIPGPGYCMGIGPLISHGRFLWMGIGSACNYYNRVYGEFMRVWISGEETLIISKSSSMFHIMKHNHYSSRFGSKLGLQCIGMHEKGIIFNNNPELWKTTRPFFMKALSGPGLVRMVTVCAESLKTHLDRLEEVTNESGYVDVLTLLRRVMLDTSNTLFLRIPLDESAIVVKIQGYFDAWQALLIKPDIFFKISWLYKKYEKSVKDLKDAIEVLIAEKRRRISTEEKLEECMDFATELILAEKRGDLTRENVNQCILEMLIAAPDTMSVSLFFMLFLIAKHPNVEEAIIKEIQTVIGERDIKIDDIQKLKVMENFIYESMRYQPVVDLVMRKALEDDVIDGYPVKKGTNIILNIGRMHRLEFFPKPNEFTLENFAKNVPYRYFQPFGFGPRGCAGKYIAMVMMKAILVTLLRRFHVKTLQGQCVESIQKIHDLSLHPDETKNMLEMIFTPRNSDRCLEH

Row | Structure (SMILES) | viability at 72 h, 0.4 µM ([1]; 72 h) | viability at 24 h, 1 µM [1, 3] | viability at 48 h, 1 µM ([1]; 1 μM, read-out: viable cells) | viability at 24 h, 10 µM ([1]; 10 μM, 24 h, read-out: viable cells) | viability at 48 h, 10 µM ([1]; 10 μM, read-out: viable cells) | growth percent [2] | growth percent (HT29 (Colon Cancer)) | growth percent (A498 (Renal Cancer)) | growth percent (ACHN (Renal Cancer)) | IC50 (HL-60 cells) | IC50 (HL-60 cells; 72 h) | viability at 72 h, 0.5 µM ([1]; 0.5 μM, 72 h, read-out: cell viability) | viability at 72 h, 1 µM ([1]; 1 μM, 72 h, read-out: cell viability) | viability at 72 h, 10 µM ([1]; 10 μM, 72 h, read-out: cell viability) | GI50 ([2]; Homo sapiens, five-dose) | GI50 (HT29 (Colon Cancer); Homo sapiens, HT-29, five-dose) | GI50 (A498 (Renal Cancer); Homo sapiens, five-dose) | GI50 (ACHN (Renal Cancer); Homo sapiens, five-dose) | inhibition at 50 µM (CYP19 (aromatase))
1 | COc1ccc(/C=C/C(c2cc(OC)c(OC)c(OC)c2)n2cncn2)cc1 (stereo not drawn) [Compound 22a, (E)-1-(3-(4-Methoxyphenyl)-1-(3,4,5-trimethoxyphenyl)allyl)-1H-1,2,4-triazole] | > 80% | 100% | > 80% | 78% | ~57% | 35.48% | 4.96% | 36.38% | 57.45% |  |  |  |  |  |  |  |  |  | 
2 | COc1cc(/C=C/C(/C=C/c2cc(OC)c(OC)c(OC)c2)n2ccnc2)cc(OC)c1OC [Compound 30, 1-((1E,4E)-1,5-bis(3,4,5-trimethoxyphenyl)penta-1,4-dien-3-yl)-1H-imidazole] |  |  |  |  |  | 78.93% | 80.30% | 104.55% | 99.92% |  |  |  |  |  |  |  |  |  | 
3 | COc1ccc(/C=C/C(c2cc(OC)c(OC)c(OC)c2)n2ccnc2)cc1O (stereo not drawn) [Compound 23b, (E)-5-(3-(1H-Imidazol-1-yl)-3-(3,4,5-trimethoxyphenyl)prop-1-en-1-yl)-2-methoxyphenol] |  |  |  |  |  | 29.07% | 70.97% | 67.46% | 46.34% |  |  |  |  |  |  |  |  |  | 
4 | COc1ccc(/C=C/C(c2cc(OC)c(OC)c(OC)c2)n2cncn2)cc1O (stereo not drawn) [Compound 22b, (E)-5-(3-(1H-1,2,4-Triazol-1-yl)-3-(3,4,5-trimethoxyphenyl)prop-1-en-1-yl)-2-methoxyphenol] | > 80% | 100% | > 80% |  | ~30% | 40.13% | 41.01% | 19.81% | 63.11% | 370 nM | 366 ± 130 nM | 80% | 55% | 24% | 4560 nM | 3680 nM | 3130 nM | 57.9 nM | 93%
5 | COc1ccc(C2CC(n3ccnc3)c3cc(OC)c(OC)c(OC)c32)cc1O (stereo not drawn) [Compound 27a, 5-(3-(1H-Imidazol-1-yl)-5,6,7-trimethoxy-2,3-dihydro-1H-inden-1-yl)-2-methoxyphenol] |  |  |  |  |  | 55.83% | 101.76% | 88.34% | 86.36% |  |  |  |  |  |  |  |  |  | 
